Measured values published in PubChem BioAssay AID256 (DTP/NCI, 2004).
Toxic doses and inconclusive results are not listed. How the source made its calls: active means survival T/C of 150% or more; inactive means T/C below 125% in these data.

Test system: CD2F1 mice, L1210 leukemia ip, survival T/C
Assay: NCI In Vivo Anticancer Drug Screen. Data for tumor model L1210 Leukemia (intraperitoneal) in CD2F1 (CDF1) mice
Settings: higher = longer survival
In short: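 Tumor-bearing mice (transplanted tumor) were split into treated and vehicle control groups, and the measured endpoint of each treated group was divided by that of its vehicle controls.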

[1] = endpoint: mean survival time, dose: 100.0 mg/kg/injection, schedule: Q01DX001 (ip), vehicle: saline with Tween-80
[2] = endpoint: mean survival time, dose: 200.0 mg/kg/injection, schedule: Q01DX001 (ip), vehicle: saline with Tween-80
[3] = endpoint: mean survival time, dose: 400.0 mg/kg/injection, schedule: Q01DX001 (ip), vehicle: saline with Tween-80
[4] = endpoint: mean survival time, dose: 100.0 mg/kg/injection, schedule: Q04DX003 (ip), vehicle: saline with Tween-80
[5] = endpoint: mean survival time, dose: 200.0 mg/kg/injection, schedule: Q04DX003 (ip), vehicle: saline with Tween-80
[6] = endpoint: mean survival time, dose: 400.0 mg/kg/injection, schedule: Q04DX003 (ip), vehicle: saline with Tween-80
[7] = endpoint: mean survival time, dose: 100.0 mg/kg/injection, schedule: Q01DX009 (ip), vehicle: saline with Tween-80
[8] = endpoint: mean survival time, dose: 200.0 mg/kg/injection, schedule: Q01DX009 (ip), vehicle: saline with Tween-80
[9] = endpoint: mean survival time, dose: 100.0 mg/kg/injection, schedule: Q04DX002 (ip), vehicle: saline with Tween-80
[10] = endpoint: mean survival time, dose: 200.0 mg/kg/injection, schedule: Q04DX002 (ip), vehicle: saline with Tween-80
[11] = endpoint: mean survival time, dose: 400.0 mg/kg/injection, schedule: Q04DX002 (ip), vehicle: saline with Tween-80
[12] = endpoint: mean survival time, dose: 400.0 mg/kg/injection, schedule: Q01DX009 (ip), vehicle: saline with Tween-80
[13] = endpoint: mean survival time, dose: 12.5 mg/kg/injection, schedule: Q01DX005 (ip), vehicle: water
[14] = endpoint: mean survival time, dose: 25.0 mg/kg/injection, schedule: Q01DX005 (ip), vehicle: water
[15] = endpoint: mean survival time, dose: 50.0 mg/kg/injection, schedule: Q01DX005 (ip), vehicle: water
[16] = endpoint: mean survival time, dose: 100.0 mg/kg/injection, schedule: Q01DX005 (ip), vehicle: water
[17] = endpoint: mean survival time, dose: 200.0 mg/kg/injection, schedule: Q01DX005 (ip), vehicle: water

Measured: T/C

O=c1scc(-c2ccc([N+](=O)[O-])cc2)s1
inactive: endpoint: mean survival time, dose: 12.5 mg/kg/injection, schedule: Q04DX003 (ip), vehicle: Klucel (hydroxypropylcellulose) (HPC) 104 % of control | endpoint: mean survival time, dose: 25.0 mg/kg/injection, schedule: Q04DX003 (ip), vehicle: Klucel (hydroxypropylcellulose) (HPC) 91 % of control

Fc1ccc(CC(F)F)cc1
inactive: [1] 107 % of control | [2] 98 % of control | [3] 103 % of control

CC(C)C(C(O)c1ccccc1)[N+](=O)[O-] (stereo unspecified)
inactive: endpoint: mean survival time, dose: 100.0 mg/kg/injection, schedule: Q01DX009 (ip), vehicle: saline sonified 102 % of control | [4] 102 % of control | endpoint: mean survival time, dose: 200.0 mg/kg/injection, schedule: Q01DX009 (ip), vehicle: saline sonified 102 % of control | [5] 96 % of control | endpoint: mean survival time, dose: 400.0 mg/kg/injection, schedule: Q01DX009 (ip), vehicle: saline sonified 100 % of control | [6] 100 % of control

Cc1ccc(C2=NNc3n[nH]c(=S)n3N2)cc1
inactive: [7] 101 % of control | [4] 95 % of control | [8] 96 % of control | [5] 93 % of control | [6] 91 % of control

CSc1cc(=O)n(C2OC(COCc3ccccc3)C(OCc3ccccc3)C2OCc2ccccc2)c(=O)[nH]1 (stereo unspecified)
inactive: endpoint: mean survival time, dose: 100.0 mg/kg/injection, schedule: Q01DX005 (ip), vehicle: saline 111 % of control | endpoint: mean survival time, dose: 200.0 mg/kg/injection, schedule: Q01DX005 (ip), vehicle: saline 107 % of control

Cn1c(=O)c2[nH]c(NCc3ccccc3)nc2n(C)c1=O
inactive: endpoint: mean survival time, dose: 12.5 mg/kg/injection, schedule: Q01DX005 (ip), vehicle: distilled water + Tween-80 93 % of control | endpoint: mean survival time, dose: 25.0 mg/kg/injection, schedule: Q01DX005 (ip), vehicle: distilled water + Tween-80 90 % of control | endpoint: mean survival time, dose: 50.0 mg/kg/injection, schedule: Q01DX005 (ip), vehicle: distilled water + Tween-80 90 % of control | endpoint: mean survival time, dose: 100.0 mg/kg/injection, schedule: Q01DX005 (ip), vehicle: distilled water + Tween-80 94 % of control | endpoint: mean survival time, dose: 200.0 mg/kg/injection, schedule: Q01DX005 (ip), vehicle: distilled water + Tween-80 90 % of control

CC(=O)Nc1ccc2c(c1)C(=O)c1cc(NC(C)=O)ccc1-2
inactive: [1] 98 % of control | [2] 111 % of control | [3] 98 % of control

FC(F)(F)/C([S-])=C(/[S-])C(F)(F)F.[Fe].[c-]1[c-][c-][cH-][c-]1
inactive: endpoint: mean survival time, dose: 75.0 mg/kg/injection, schedule: Q01DX001 (ip), vehicle: other 105 % of control | endpoint: mean survival time, dose: 150.0 mg/kg/injection, schedule: Q01DX001 (ip), vehicle: other 100 % of control

[O]=[Nb]
inactive: endpoint: mean survival time, dose: 5.0 mg/kg/injection, schedule: Q04DX003 (ip), vehicle: saline 102 % of control | endpoint: mean survival time, dose: 10.0 mg/kg/injection, schedule: Q04DX003 (ip), vehicle: saline 98 % of control

C/C(=C\CC(=O)C/C=C(\C)CCCC(C)CCCC(C)CCCC(C)C)CCCC(C)CCCC(C)CCCC(C)C (stereo unspecified)
inactive: [9] 103 % of control | [10] 103 % of control | [11] 96 % of control

[Cl][Pt+2][Cl].[NH-]c1cc(Cl)c(Cl)c(Cl)c1[NH-]
inactive: endpoint: mean survival time, dose: 2.5 mg/kg/injection, schedule: Q01DX009 (ip), vehicle: saline with Tween-80 105 % of control | endpoint: mean survival time, dose: 5.0 mg/kg/injection, schedule: Q01DX009 (ip), vehicle: saline with Tween-80 100 % of control | endpoint: mean survival time, dose: 10.0 mg/kg/injection, schedule: Q01DX009 (ip), vehicle: saline with Tween-80 100 % of control | endpoint: mean survival time, dose: 20.0 mg/kg/injection, schedule: Q01DX009 (ip), vehicle: saline with Tween-80 107 % of control | endpoint: mean survival time, dose: 40.0 mg/kg/injection, schedule: Q01DX009 (ip), vehicle: saline with Tween-80 94 % of control

CCCCCCC(O)/C=C/c1ccc(Cl)cc1 (stereo unspecified)
inactive: [4] 110 % of control | [5] 102 % of control | [6] 111 % of control

COc1c(C)c2c(c(O)c1CCNc1ccc(S(N)(=O)=O)cc1)C(=O)OC2
inactive: [9] 100 % of control | [10] 96 % of control | [11] 100 % of control

CCOc1ccc2ccccc2c1C(=O)N(CCCl)CCCl
inactive: endpoint: mean survival time, dose: 25.0 mg/kg/injection, schedule: Q01DX009 (ip), vehicle: saline with Tween-80 94 % of control | [7] 104 % of control

N#Cc1ccccc1C(C#N)c1ccc([N+](=O)[O-])cc1 (stereo unspecified)
inactive: endpoint: mean survival time, dose: 50.0 mg/kg/injection, schedule: Q04DX003 (ip), vehicle: DMSO 93 % of control | endpoint: mean survival time, dose: 100.0 mg/kg/injection, schedule: Q04DX003 (ip), vehicle: DMSO 98 % of control | endpoint: mean survival time, dose: 200.0 mg/kg/injection, schedule: Q04DX003 (ip), vehicle: DMSO 93 % of control | endpoint: mean survival time, dose: 400.0 mg/kg/injection, schedule: Q04DX003 (ip), vehicle: DMSO 96 % of control

CSc1cc(C)c(O)c(CO)c1
inactive: endpoint: mean survival time, dose: 100.0 mg/kg/injection, schedule: Q04DX003 (ip), vehicle: other 104 % of control | endpoint: mean survival time, dose: 200.0 mg/kg/injection, schedule: Q04DX003 (ip), vehicle: other 98 % of control | endpoint: mean survival time, dose: 400.0 mg/kg/injection, schedule: Q04DX003 (ip), vehicle: other 100 % of control

Cc1cc(CC(O)(C(F)(F)Cl)C(F)(F)Cl)cc(C)n1
inactive: [4] 95 % of control | [5] 92 % of control | [6] 90 % of control

CC(C)(C)OC(=O)Cc1ccccc1
inactive: [1] 91 % of control | [2] 97 % of control | [3] 94 % of control

CC(Br)C(=O)NC(Cc1ccccc1)C(=O)O (stereo unspecified)
inactive: [7] 101 % of control | [8] 97 % of control | [12] 97 % of control

CC(=O)OCC1OC(n2ncc3c(Cl)ncnc32)C(OC(C)=O)C1OC(C)=O (stereo unspecified)
inactive: [13] 93 % of control | [14] 93 % of control | [15] 101 % of control | [16] 112 % of control | [17] 103 % of control

N#CCCC(=O)c1nc(N)nc(N)n1
inactive: endpoint: mean survival time, dose: 50.0 mg/kg/injection, schedule: Q01DX009 (ip), vehicle: saline with Tween-80 91 % of control | [7] 91 % of control | [8] 91 % of control

O.O=S(=O)(O)O.[Co+3].[NH2-].[NH2-].[NH2-].[NH2-].[NH2-]
inactive: [10] 123 % of control

OC(Cc1cccc(/C=N/N2CCOCC2)n1)(C(F)(F)F)C(F)(F)F
inactive: [5] 89 % of control | [6] 89 % of control

CCc1cc(C)cc(OC(=O)Nc2ccc(Cl)cc2)c1
inactive: [7] 93 % of control | [4] 107 % of control | [8] 100 % of control | [5] 93 % of control | [12] 96 % of control | [6] 91 % of control

O=Cc1cc([N+](=O)[O-])ccc1OCC(=O)O
inactive: [7] 92 % of control | [8] 95 % of control | [12] 96 % of control

CC(C)(C)NC(=O)CCC(CC(=O)NC(C)(C)C)C1([N+](=O)[O-])CCCCC1 (stereo unspecified)
inactive: [7] 92 % of control | [8] 86 % of control

NC(=O)NC(=O)C1CCCCC1C(=O)O (stereo unspecified)
inactive: endpoint: mean survival time, dose: 100.0 mg/kg/injection, schedule: Q01DX001 (ip), vehicle: saline 103 % of control | endpoint: mean survival time, dose: 200.0 mg/kg/injection, schedule: Q01DX001 (ip), vehicle: saline 101 % of control | endpoint: mean survival time, dose: 400.0 mg/kg/injection, schedule: Q01DX001 (ip), vehicle: saline 109 % of control

NC(=O)Cc1c[nH]c2cc(O)ccc12
inactive: [7] 93 % of control | [4] 97 % of control | [8] 95 % of control | [5] 97 % of control | [12] 100 % of control | [6] 95 % of control

O=[Te]=O
inactive: endpoint: median survival time, dose: 3.12 mg/kg/injection, schedule: Q01DX009 (ip), vehicle: saline 100 % of control | endpoint: median survival time, dose: 6.25 mg/kg/injection, schedule: Q01DX009 (ip), vehicle: saline 98 % of control | endpoint: median survival time, dose: 10.0 mg/kg/injection, schedule: Q01DX009 (ip), vehicle: saline 101 % of control | endpoint: median survival time, dose: 12.5 mg/kg/injection, schedule: Q01DX009 (ip), vehicle: saline 100 % of control | endpoint: median survival time, dose: 20.0 mg/kg/injection, schedule: Q01DX009 (ip), vehicle: saline 97 % of control

S=C(NNc1ccccc1)NC1CCCCC1
inactive: endpoint: mean survival time, dose: 25.0 mg/kg/injection, schedule: Q01DX009 (ip), vehicle: acetone 96 % of control | endpoint: mean survival time, dose: 50.0 mg/kg/injection, schedule: Q01DX009 (ip), vehicle: acetone 100 % of control | endpoint: mean survival time, dose: 100.0 mg/kg/injection, schedule: Q01DX009 (ip), vehicle: acetone 96 % of control

CCSC(C(O)C(O)C(O)CO)n1cc(F)c(=O)[nH]c1=O (stereo unspecified)
inactive: [13] 104 % of control | [14] 105 % of control | [15] 110 % of control | [16] 105 % of control | [17] 104 % of control
